The values that follow come from US20250059164A1, “IRAK DEGRADERS AND USES THEREOF” (Kymera Therapeutics, Inc., priority 2023, published 2025).

Each structure is given as a SMILES string. Bounds are passed on as bounds.

The target in this assay is T1, IRAK4 (Homo sapiens, UniProt Q9NWZ3).
T1 construct: endogenous in cells; host or cells: OCI-LY10
T1 sequence (Q9NWZ3 1-460): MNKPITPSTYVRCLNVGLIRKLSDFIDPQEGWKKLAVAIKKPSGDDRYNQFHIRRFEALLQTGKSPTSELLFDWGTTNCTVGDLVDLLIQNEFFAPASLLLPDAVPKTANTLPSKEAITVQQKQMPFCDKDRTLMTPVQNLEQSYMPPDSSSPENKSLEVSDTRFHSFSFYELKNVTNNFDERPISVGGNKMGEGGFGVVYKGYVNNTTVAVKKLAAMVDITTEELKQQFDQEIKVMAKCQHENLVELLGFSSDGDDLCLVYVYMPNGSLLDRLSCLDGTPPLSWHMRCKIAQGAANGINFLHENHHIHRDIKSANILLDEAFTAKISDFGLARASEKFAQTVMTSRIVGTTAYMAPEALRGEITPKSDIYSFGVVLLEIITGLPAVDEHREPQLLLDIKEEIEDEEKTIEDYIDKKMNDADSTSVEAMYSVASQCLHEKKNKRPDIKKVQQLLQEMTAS
Put plainly: IRAK4 MSD degradation in OCI-LY10. In kind it is cell-based. Conditions: OCI-LY10 cells, 24 hrs, Meso Scale Discovery. How it is done: Degradation of IRAK4 in OCI-LY10 was quantitatively measured using Meso Scale Discovery technology. […] Compounds were then added to the assay plates with a final top concentration of 1 to 10 μM in a 1:3 dilution series with total of 8 doses. The assay plates were then incubated for 4 to 24 hours at 37° C. under 5% CO2. […] To prepare MSD assay plates (Meso Scale Discovery Catalog number L15XA-3), the plates were coated with 2 μg/mL capture antibody (mouse Anti-IRAK4 antibody [2H9], ab119942) in PBS, at 40 μL/well. […] Cell lysates were then added to MSD assay plates and the plates were incubated at room temperature for 1 hour. The plates were then washed 3 times with 150 μL/well TBST buffer and 25 μL/well primary detection antibody (rabbit Anti-IRAK4 antibody [Y279], from Abcam. Catalog number ab32511, 1 μg/mL). The assay plates were then incubated at room temperature for 1 hour, washed 3 times with 150 μL/well TBST buffer and 25 μL/well secondary detection antibody, SULFO-TAG anti-rabbit antibody were added (anti-rabbit antibody from Meso Scale Discovery, Catalog number R32AB-1, 1 μg/mL). The assay plates were then incubated at room temperature for 1 hour, washed 3 times with 150 μL/well TBST buffer, and 150 μL/well MSD reading buffer (Meso Scale Discovery catalog number R92TC-2) was added. The plates were then analyzed by a MSD reader (Meso Scale Discovery, Model Quick Plex SQ 120). The data was then analyzed by software Prism 7.0 from GraphPad and the dose-depended IRAK4 degradation were fit using a three-parameter logistic equation to calculate DC50.
The letter codes for IRAK4 DC50 include: A (<0.01 μM); B (0.01 to <0.1 μM); C (0.1 to 0.2 μM); D (>0.2 μM) and E (not tested).

Broadly, the DC50 is the concentration at which degradation of the target reaches its halfway point. A lower DC50 goes with a more potent degrader. For the molecule `CN(C[C@H]1C[C@H](n2cc(NC(=O)c3cnn4ccc(N5C[C@H]6C[C@@H]5CO6)nc34)c(C(F)F)n2)C1)[C@H]1CCN(c2cccc3c2n(C)c(=O)n3C2CCC(=O)NC2=O)C[C@@H]1F` (single isomer, unassigned) [I-6], the DC50 was less than 10 nM.
In the case of `C[C@H]1CN(c2ccn3ncc(C(=O)Nc4cn([C@H]5CC[C@H](CN(C)[C@H]6CCN(c7cccc8c7n(C)c(=O)n8C7CCC(=O)NC7=O)C[C@H]6F)CC5)nc4C(F)F)c3n2)CCO1` (some centres unmarked) [I-51] it was less than 10 nM; in that of `Cn1c(=O)n(C2CCC(=O)NC2=O)c2ccc(F)c([C@@H]3CCN(C[C@H]4CC[C@H](n5cc6cc(NC(=O)c7cncc(C(F)(F)F)n7)ccc6n5)CC4)CC3(F)F)c21` (single isomer, unassigned) [I-376], less than 10 nM.
In the case of `Cn1c(=O)n(C2CCC(=O)NC2=O)c2cccc(C#CCN3CCN(C[C@H]4CC[C@H](n5cc(NC(=O)c6cnn7ccc(N8C[C@H]9C[C@@H]8CO9)nc67)c(C(F)F)n5)CC4)C[C@@H]3C(F)(F)F)c21` (single isomer, unassigned) [I-303], the DC50 lay in the range of 10 to 100 nM.
Molecule `Cn1c(=O)n(C2CCC(=O)NC2=O)c2cccc([C@@H]3CCN(C[C@H]4CC[C@H](c5nc6ccc(NC(=O)c7cncc(C(F)(F)F)n7)cc6o5)CC4)C[C@H]3F)c21` (some centres unmarked) [I-295] displayed a DC50 of more than 200 nM.
As for `CN(C[C@H]1CC[C@H](n2cc3cc(NC(=O)c4cccc(C(F)(F)F)n4)c(C(C)(C)O)cc3n2)CC1)[C@H]1CCN(c2cccc3c2n(C)c(=O)n3C2CCC(=O)NC2=O)C[C@@H]1F` (some centres unmarked) [I-68], the DC50 is less than 10 nM.
For the molecule `O=C1CCC(Nc2cccc(N3CC(CN4CCN(C[C@H]5CC[C@H](n6cc(NC(=O)c7cnn8ccc(N9C[C@H]%10C[C@@H]9CO%10)nc78)c(C(F)F)n6)CC5)CC4)C3)c2)C(=O)N1` (some centres unmarked) [I-13], the DC50 was 10 to 100 nM.
For the molecule `Cn1c(=O)n(C2CCC(=O)NC2=O)c2cccc(N3CC(COC[C@H]4CC[C@H](n5cc6cc(NC(=O)c7cccc(C(F)(F)F)n7)ccc6n5)CC4)C3)c21` (some centres unmarked) [I-123], the DC50 was 10 to 100 nM.
Molecule `CN(C[C@H]1C[C@@H](n2cc(NC(=O)c3cnn4ccc(N5C[C@H]6C[C@@H]5CO6)nc34)c(C(F)F)n2)C1)[C@H]1CCN(c2cccc3c2n(C)c(=O)n3C2CCC(=O)NC2=O)C[C@@H]1F` (single isomer, unassigned) [I-4] registered a DC50 of less than 10 nM.
`CN(C[C@H]1CC[C@H](c2nc3cc(C(C)(C)O)c(NC(=O)c4cccc(C(F)(F)F)n4)cc3s2)CC1)[C@H]1CCN(c2cccc3c2n(C)c(=O)n3C2CCC(=O)NC2=O)C[C@H]1F` (some centres unmarked) [I-105] showed a DC50 of less than 10 nM.
`COc1nc(NC(=O)c2cccc(C(F)F)n2)cc2cn([C@H]3CC[C@H](CN4CC[C@H](c5cccc6c5n(C)c(=O)n6C5CCC(=O)NC5=O)C(F)(F)C4)CC3)nc12` (some centres unmarked) [I-44] registered a half-maximal degradation concentration (DC50) of 10 to 100 nM.
Take `O=C1CC[C@@H](c2ccc(N3CC(N4CCN([C@H]5CC[C@H](n6cc(NC(=O)c7cnn8ccc(N9C[C@H]%10C[C@@H]9CO%10)nc78)c(C(F)F)n6)CC5)CC4)C3)cc2Cl)C(=O)N1` [I-125]: the DC50 fell in the range of 10 to 100 nM.
`CN(C[C@H]1CC[C@H](n2cc3cc(NC(=O)c4cccc(C(F)(F)F)n4)ccc3n2)CC1)C1CCN(c2cccc3c2n(C)c(=O)n3C2CCC(=O)NC2=O)C[C@@H]1F` (some centres unmarked) [I-32] returned a DC50 of less than 10 nM.
For the molecule `Cn1c(=O)n([C@H]2CCC(=O)NC2=O)c2cccc([C@@H]3CCN(C[C@H]4CC[C@H](c5nc6cc(C(C)(C)O)c(NC(=O)c7cncc(C#N)c7)cc6s5)CC4)C[C@H]3F)c21` (single isomer, unassigned) [I-236], the DC50 is less than 10 nM.
In turn, `CN(C[C@H]1CC[C@H](n2cc(NC(=O)c3cnn4ccc(N5C[C@H]6C[C@@H]5CO6)nc34)c(C(F)F)n2)CC1)[C@H]1CCN(c2cccc3c2n(C)c(=O)n3[C@@H]2CCC(=O)NC2=O)C[C@@H]1F` (single isomer, unassigned) [I-143] came in with a DC50 of less than 10 nM.
On to `CN(C[C@H]1C[C@H](n2cc(NC(=O)c3cnn4ccc(N5C[C@H]6C[C@@H]5CO6)nc34)c(C(F)F)n2)C1)[C@H]1CCN(c2cccc3c2n(C)c(=O)n3C2CCC(=O)NC2=O)C[C@H]1F` (single isomer, unassigned) [I-60], for which the half-maximal degradation concentration (DC50) is less than 10 nM.
The molecule `Cc1nn(C2CCC(=O)NC2=O)c2cccc(N3CC(N4CCN([C@H]5CC[C@@H](n6cc(NC(=O)c7cnn8ccc(N9C[C@H]%10C[C@@H]9CO%10)nc78)c(C(F)F)n6)CC5)CC4)C3)c12` (some centres unmarked) [I-57] displayed a DC50 of more than 200 nM.
The molecule `Cn1c(=O)n(C2CCC(=O)NC2=O)c2cccc(N3CCN(C[C@H]4CC[C@H](n5cc6cc(NC(=O)c7cncc(C(F)(F)F)n7)ccc6n5)CC4)[C@H](C(F)(F)F)C3)c21` (some centres unmarked) [I-368] yielded a DC50 of 10 to 100 nM.
Regarding `Cn1c(=O)n(C2CCC(=O)NC2=O)c2cccc(N3CC(OC[C@H]4CC[C@H](n5cc6cc(NC(=O)c7cccc(C(F)(F)F)n7)ccc6n5)CC4)C3)c21` (some centres unmarked) [I-242], the DC50 was more than 200 nM.
In turn, `Cn1nc([C@@H]2CCC(=O)NC2=O)c2cccc([C@@H]3CCN(C[C@H]4CC[C@H](n5cc6cc(NC(=O)c7cncc(C#N)c7)c(C(C)(C)O)cc6n5)CC4)CC3(F)F)c21` (single isomer, unassigned) [I-230] had a 50% degradation concentration (DC50) of less than 10 nM.
In the case of `CN(C[C@H]1CC[C@H](c2nc3cc(C(C)(C)O)c(NC(=O)c4cccc(C(F)(F)F)n4)cc3s2)CC1)[C@H]1CCN(c2cccc3c2n(C)c(=O)n3C2CCC(=O)NC2=O)C[C@@H]1F` (some centres unmarked) [I-239], the DC50 is 10 to 100 nM.
`Cn1c(=O)n(C2CCC(=O)NC2=O)c2cccc(OC3CC4(CCN(Cc5ccc(-n6cc(NC(=O)c7cnn8ccc(N9C[C@H]%10C[C@@H]9CO%10)nc78)c(C(F)F)n6)cc5)CC4)C3)c21` (some centres unmarked) [I-113] showed a 50% degradation concentration (DC50) of less than 10 nM.
The molecule `CN(C[C@H]1CC[C@H](c2cn3cc(NC(=O)c4cncc(C(F)(F)F)n4)c(C(C)(C)O)cc3n2)CC1)[C@@H]1CCN(c2cccc3c2n(C)c(=O)n3C2CCC(=O)NC2=O)C[C@H]1F` (single isomer, unassigned) [I-334] displayed a DC50 of less than 10 nM.
With `Cn1c(NC(=O)c2cccc(C(F)(F)F)n2)cc2cn([C@H]3CC[C@H](CN4CC[C@@H](c5cccc6c5n(C)c(=O)n6C5CCC(=O)NC5=O)C(F)(F)C4)CC3)nc2c1=O` (some centres unmarked) [I-39], the DC50 was more than 200 nM.
In the case of `Cc1cc(C(=O)Nc2ccc3nn([C@H]4CC[C@H](CN5CC[C@@H](c6cccc7c6n(C)c(=O)n7C6CCC(=O)NC6=O)C(F)(F)C5)CC4)cc3c2)nc(C(F)(F)F)c1` (some centres unmarked) [I-402] it was more than 200 nM; in that of `Cn1c(=O)n([C@@H]2CCC(=O)NC2=O)c2cccc([C@@H]3CCN(C[C@H]4CC[C@H](c5nc6cc(C(C)(C)O)c(NC(=O)c7cncc(C#N)c7)cc6s5)CC4)C[C@H]3F)c21` (single isomer, unassigned) [I-237], less than 10 nM.
Consider `COc1cc2nn([C@H]3CC[C@H](CN4CCC5(CCN(c6ccc(C7CCC(=O)NC7=O)c(Cl)c6)CC5)C(F)(F)C4)CC3)cc2cc1NC(=O)c1cncc(C#N)c1` (some centres unmarked) [I-130], for which the DC50 is 10 to 100 nM.
In the case of `Cn1c(=O)n(C2CCC(=O)NC2=O)c2cccc([C@@H]3CCN(C[C@H]4CC[C@H](n5cc6cc(NC(=O)c7cccc(C(F)(F)F)n7)ccc6n5)CC4)C[C@H]3F)c21` (single isomer, unassigned) [I-12], the DC50 was less than 10 nM.
As for `CN(C[C@H]1C[C@H](n2cc(NC(=O)c3cnn4ccc(N5C[C@H]6C[C@@H]5CO6)nc34)c(C(F)F)n2)C1)[C@@H]1CCN(c2cccc3c2n(C)c(=O)n3C2CCC(=O)NC2=O)C[C@@H]1F` (single isomer, unassigned) [I-59], the DC50 is less than 10 nM.
